The Deep4Chem optical property database

Assay: solvent given as SMILES
[1] = in O=P(c1ccccc1)(c1ccccc1)c1ccccc1Oc1ccccc1P(=O)(c1ccccc1)c1ccccc1

Compound: FC(F)(F)c1ccc(/C=C/c2nc3c(ccc4ccccc43)s2)cc1
- emission maximum (in C1CCCCC1): 432 nm
- emission maximum (in CC#N): 445 nm

Compound: COc1ccc(-c2nc3c([nH]2)C2=CC(=O)S[C@]2(C)[C@@]2(C)SC(=O)C=C32)cc1
- emission maximum (in CC#N): 533 nm

Compound: CCN(CC)c1ccc(-c2ccc(-c3nc(C#N)c4ccccc4n3)s2)cc1
- emission maximum (in CC#N): 539 nm
- emission maximum (in Cc1ccccc1): 471 nm

Compound: COC(=O)CCC1=CC(C#Cc2cccs2)=[N+]2C1=Cc1c(CCC(=O)OC)cc(C#Cc3cccs3)n1[B-]2(F)F
- emission maximum (in ClCCl): 681 nm

Compound: CCCCCCCCCCCCOc1cc2cc(N(C)C)ccc2cc1C=C(C#N)C#N
- emission maximum (in C1CCOC1): 576 nm
- emission maximum (in CC#N): 613 nm
- emission maximum (in CCCCCC): 653 nm
- emission maximum (in CCO): 610 nm
- emission maximum (in CCOC(C)=O): 571 nm
- emission maximum (in CS(C)=O): 631 nm
- emission maximum (in ClCCl): 578 nm
- emission maximum (in O): 674 nm

Compound: CCOC(=O)COc1ccc(/C=C/C2=C3C(C)=CC(C)=[N+]3[B-](F)(F)n3c2c2ccccc2c3-c2[nH]c(C)cc2C)cc1
- emission maximum (in ClCCl): 687 nm

Compound: N#Cc1ccc(C=C(c2ccccc2)c2ccccc2)cc1
- emission maximum (in C1CCOC1): 390 nm

Compound: F[B-]1(F)OC(c2cccc(Br)c2)=Cc2c3ccccc3c3ccccc3[n+]21
- emission maximum (in ClC(Cl)Cl): 446 nm

Compound: COC1=[N+]2C(=C(c3ccccc3)c3cc(SC#N)c(OC)n3[B-]2(F)F)C=C1SC#N
- emission maximum (in CC#N): 553 nm
- emission maximum (in CCCCCC): 560 nm
- emission maximum (in CCOC(C)=O): 556 nm
- emission maximum (in CO): 550 nm
- emission maximum (in ClCCl): 555 nm

Compound: CN(C)c1ccc(/C=C2\OC(=O)c3cc(N)ccc32)cc1
- emission maximum (in CC#N): 561.8 nm
- emission maximum (in CC(C)=O): 537.06 nm
- emission maximum (in CC(C)CO): 542.89 nm
- emission maximum (in CC(C)O): 550.06 nm
- emission maximum (in CCCO): 559.91 nm
- emission maximum (in CCO): 568.18 nm
- emission maximum (in CCOC(C)=O): 520.83 nm
- emission maximum (in CCOCC): 444.84 nm
- emission maximum (in CO): 568.18 nm

Compound: CCN1C(=CC2=C([O-])C(=CC3=[N+](CC)c4ccccc4C3(C)C)C2=O)C(C)(C)c2ccccc21
- emission maximum (in CO): 644 nm
- emission maximum (in ClC(Cl)Cl): 645 nm

Compound: N#Cc1nn(-c2ccc(Cl)cc2)nc1N1CCCC1
- emission maximum (in CC#N): 429 nm

Compound: CC(C)(C)c1ccc2c(c1)Sc1cc(C(C)(C)C)ccc1N2c1ccc2c(ccc3nc4ccc5cc(N6c7ccc(C(C)(C)C)cc7Sc7cc(C(C)(C)C)ccc76)ccc5c4nc32)c1
- emission maximum (in C1CCCCC1): 575 nm
- emission maximum (in Cc1ccccc1): 682 nm

Compound: c1ccc(-n2c(-c3cccc4ccccc34)nc3c4cccc5ccc6cccc(c6c54)c32)cc1
- emission maximum (in C1CCOC1): 422.46 nm
- emission maximum (in CCCCCC): 384 nm
- emission maximum (in CS(C)=O): 436 nm
- emission maximum (in Cc1ccccc1): 420 nm
- emission maximum (in ClCCl): 424.78 nm

Compound: c1ccc(-c2nc(-c3ccccc3)nc(-c3ccc(-n4c5ccccc5c5c6c(ccc54)-c4ccccc4C6(c4ccccc4)c4ccccc4)cc3)n2)cc1
- emission maximum (in C1CCOC1): 504.15 nm
- emission maximum (in CCCCCC): 407.03 nm
- emission maximum (in Cc1ccccc1): 446 nm
- emission maximum (in ClCCl): 530.05 nm
- emission maximum [1]: 475 nm

Compound: CCn1c2ccccc2oc2c(C#N)c3oc4ccccc4oc3c(C#N)c21
- emission maximum (in ClC(Cl)Cl): 555 nm

Compound: CCCCC1(c2ccccc2)Nc2c(-c3ccc(OC)cc3)ccc(-c3ccc(OC)cc3)c2N=C1c1ccccc1 (stereo not given)
- emission maximum (in C1CCOC1): 547 nm
- emission maximum (in CC#N): 556 nm
- emission maximum (in CCCCCC): 517 nm
- emission maximum (in CN(C)C=O): 568 nm
- emission maximum (in Cc1ccccc1): 525 nm
- emission maximum (in ClC(Cl)Cl): 537 nm

Compound: CC1(C)C(/C=C/C=C/c2cc3ccc(O)cc3oc2=O)=[N+](CCCS(=O)(=O)[O-])c2ccc(S(=O)(=O)O)cc21
- emission maximum (in CCO): 654 nm
- emission maximum (in CS(C)=O): 655 nm
- emission maximum (in O): 722 nm

Compound: CC[n+]1nc2cc3c4c(c2c2ccccc21)CCCN4CCC3
- emission maximum (in O): 570 nm

Compound: C[Si](C)(C)C#Cc1cc(C#C[Si](C)(C)C)c2ccc3c(C(=O)c4ccccc4)cc(C#C[Si](C)(C)C)c4ccc1c2c43
- emission maximum (in ClCCl): 467 nm

Compound: CC1(C)c2ccccc2N(c2ccc(-c3nnc(-c4ccc(N5c6ccccc6C(C)(C)c6ccccc65)cc4)o3)cc2)c2ccccc21
- emission maximum (in Cc1ccccc1): 461 nm
- emission maximum [1]: 472 nm
